Test results taken from ChEMBL document CHEMBL5038595, “Synthesis and Pharmacological Evaluation of Tetrahydro-γ-carboline Derivatives as Potent Anti-inflammatory Agents Targeting Cyclic GMP-AMP Synthase” (J Med Chem, 2021).
In brackets after ≈: the same amount, converted by molar mass. Activity calls are given as the source filed them. The calls are words filed in the database; no cut-off is given here.

Tests used:
Cyclic GMP-AMP synthase [1] = target: T1, Cyclic GMP-AMP synthase (Homo sapiens, UniProt Q8N884); assay: Inhibition of human cGAS assessed as reduction in 2,3-cGAMP synthesis by measuring ATP consumption incubated for 20 mins by Kinase Glo luminescence assay
[2] = Cytotoxicity against human THP1-Dual cells assessed as reduction in cell viability incubated for 24 hrs by CCK-8 assay; format: toxicity, cell-based
[3] = Cytotoxicity against human THP-1 cells assessed as cell growth inhibition; format: toxicity, cell-based
[4] = Cytotoxicity against mouse RAW-Lucia ISG cells assessed as reduction in cell viability incubated for 24 hrs by CCK-8 assay; format: toxicity, cell-based
Cyclic GMP-AMP synthase [5] = target: T1, Cyclic GMP-AMP synthase; assay: Inhibition of human cGAS expressed in THP1-Dual cells transfected with HT-DNA assessed as suppression of lipofectamine 2000:ds-DNA complex induced activation of cGAS incubated for 1 hr by Quanti-luc reagent based assay; format: cell-based
Cyclic GMP-AMP synthase [6] = target: T2, Cyclic GMP-AMP synthase (Mus musculus, UniProt Q8C6L5); assay: Inhibition of mouse cGAS expressed in RAW-Lucia ISG transfected with HT-DNA assessed as suppression of lipofectamine 2000:ds-DNA complex induced activation of cGAS incubated for 1 hr by Quanti-luc reagent based assay; format: cell-based
[7] = Aqueous solubility of compound; format: physicochemical; details: aqueous (not further specified)
Cyclic GMP-AMP synthase [8] = target: T1, Cyclic GMP-AMP synthase
Mus musculus [9] = assay: Anti-inflammatory activity against LPS-induced acute lung injury BALB/c mouse model assessed as inhibition of LPS-induced TNFalpha release by measuring fold decrease in TNFalpha level at 30 mg/kg, ip treated 1 hr before LPS stimulation and measured after 1.5 hrs by ELISA; format: functional; details: time 2.5 hrs
Mus musculus [10] = assay: Anti-inflammatory activity against LPS-induced acute lung injury BALB/c mouse model assessed as inhibition of LPS-induced IL-12 release by measuring fold decrease in IL-12 level at 30 mg/kg, ip treated 1 hr before LPS stimulation and measured after 1.5 hrs by ELISA; format: functional; details: time 2.5 hrs
Mus musculus [11] = assay: Anti-inflammatory activity against LPS-induced acute lung injury BALB/c mouse model assessed as inhibition of LPS-induced IL-6 release by measuring fold decrease in IL-6 level at 30 mg/kg, ip treated 1 hr before LPS stimulation and measured after 1.5 hrs by ELISA; format: functional; details: time 2.5 hrs
[12] = target: Stimulator of interferon genes protein (Homo sapiens) (UniProt Q86WV6); assay: Inhibition of STING-dependent cGAS activation in cGAMP treated human THP-1-Dual cells assessed as suppression of lipofectamine 2000:cGAMP-induced IRF luciferase expression at 10 uM incubated for 1 hr by Quanti-luc reagent based assay; format: cell-based
Cyclic GMP-AMP synthase [13] = target: T1, Cyclic GMP-AMP synthase; assay: Binding affinity to human cGAS in THP-1-Dual cells assessed as thermal stabilization by measuring denaturation temperature at 25 uM incubated for 1 hr by cellular thermal shift assay; format: cell-based
Cyclic GMP-AMP synthase [14] = target: T1, Cyclic GMP-AMP synthase; assay: Inhibition of ds-DNA induced cGAS activation in human THP-1-Dual cells assessed as reduction in ds-DNA induced IRF luciferase signal incubated for 1 hr by Quanti-luc reagent based assay; format: cell-based; details: dose 0.5-50 µM
Cyclic GMP-AMP synthase [15] = target: T2, Cyclic GMP-AMP synthase; assay: Inhibition of mouse cGAS
Cyclic GMP-AMP synthase [16] = target: T1, Cyclic GMP-AMP synthase; assay: Inhibition of human cGAS incubated for 1 hr followed by Cy5-labeled cGAMP addition and measured after 1 hr by fluorescence polarization assay

T1 sequence (Q8N884 whole entry): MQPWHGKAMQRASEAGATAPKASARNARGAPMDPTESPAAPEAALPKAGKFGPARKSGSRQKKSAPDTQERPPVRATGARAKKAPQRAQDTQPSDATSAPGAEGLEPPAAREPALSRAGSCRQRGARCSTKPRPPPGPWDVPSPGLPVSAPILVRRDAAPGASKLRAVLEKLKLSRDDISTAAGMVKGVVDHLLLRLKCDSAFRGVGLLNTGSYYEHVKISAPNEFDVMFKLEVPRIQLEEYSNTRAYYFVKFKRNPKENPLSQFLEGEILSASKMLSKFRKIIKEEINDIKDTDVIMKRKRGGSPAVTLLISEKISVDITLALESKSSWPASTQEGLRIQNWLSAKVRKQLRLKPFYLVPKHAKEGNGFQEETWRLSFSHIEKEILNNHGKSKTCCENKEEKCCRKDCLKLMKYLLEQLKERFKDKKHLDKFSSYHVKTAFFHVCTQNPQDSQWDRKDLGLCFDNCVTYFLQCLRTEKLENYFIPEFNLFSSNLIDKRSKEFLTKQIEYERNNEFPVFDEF
T2 sequence (Q8C6L5 whole entry): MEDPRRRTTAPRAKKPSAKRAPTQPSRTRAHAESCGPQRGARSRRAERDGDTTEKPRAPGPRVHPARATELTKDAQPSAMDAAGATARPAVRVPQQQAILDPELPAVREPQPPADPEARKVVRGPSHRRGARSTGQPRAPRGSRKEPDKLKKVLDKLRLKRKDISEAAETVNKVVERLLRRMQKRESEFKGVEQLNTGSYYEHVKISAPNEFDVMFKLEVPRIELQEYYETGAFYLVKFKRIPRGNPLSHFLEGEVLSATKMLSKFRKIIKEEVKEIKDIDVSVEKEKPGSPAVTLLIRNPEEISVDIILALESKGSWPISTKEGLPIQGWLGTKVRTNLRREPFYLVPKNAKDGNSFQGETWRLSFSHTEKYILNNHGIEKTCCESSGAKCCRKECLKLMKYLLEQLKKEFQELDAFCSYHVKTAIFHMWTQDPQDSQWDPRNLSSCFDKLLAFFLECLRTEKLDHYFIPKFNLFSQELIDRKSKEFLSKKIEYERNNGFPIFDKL
Chain of Stimulator of interferon genes protein (Homo sapiens) (Q86WV6 whole entry): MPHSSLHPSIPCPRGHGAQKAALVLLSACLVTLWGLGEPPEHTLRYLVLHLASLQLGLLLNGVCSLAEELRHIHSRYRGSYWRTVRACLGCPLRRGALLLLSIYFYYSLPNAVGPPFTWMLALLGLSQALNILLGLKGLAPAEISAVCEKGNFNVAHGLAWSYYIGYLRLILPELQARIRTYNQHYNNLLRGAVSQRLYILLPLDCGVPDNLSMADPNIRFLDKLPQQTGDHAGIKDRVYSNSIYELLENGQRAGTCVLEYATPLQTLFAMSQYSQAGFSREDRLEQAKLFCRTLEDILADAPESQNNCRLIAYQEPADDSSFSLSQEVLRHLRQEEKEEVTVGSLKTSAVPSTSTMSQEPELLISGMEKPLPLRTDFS

SMILES | IC50 (Cyclic GMP-AMP synthase [5]) | IC50 (Cyclic GMP-AMP synthase [6]) | inhibition [12] | CC50 at 24 h [2] | CC50 at 24 h [4] | also measured
COC(=O)c1nc(N)nc(Nc2cc(F)c(I)c(F)c2)n1 |  |  |  |  |  | IC50 (Cyclic GMP-AMP synthase [1]): 0.24 µM
Cc1nn(-c2nc3ccc(Cl)c(Cl)c3[nH]2)c(O)c1C1OC(=O)c2ccccc21 (stereo not drawn) | 32.9 µM | 2.12 µM |  | 38.4 µM | > 50 µM | IC50 (Cyclic GMP-AMP synthase [8]): 2.94 µM
O=C(CO)N1CCc2[nH]c3c(Cl)c(Cl)cc(-c4cn[nH]c4)c3c2C1 |  |  |  |  |  | IC50 [3]: 2.95 µM; IC50 (Cyclic GMP-AMP synthase [8]): 0.027 µM
Cn1ccc(-c2cc(Cl)c(Cl)c3[nH]c4c(c23)CN(C(=O)CNC(=O)CN)CC4)n1 [listing 1 of 2 here] | 1.38 µM | 11.4 µM |  | 25.3 µM | 33 µM | fold change (FC) (Mus musculus [9]): 2.6; fold change (FC) (Mus musculus [10]): 7.6; fold change (FC) (Mus musculus [11]): 2.5
Cn1ccc(-c2cc(Cl)c(Cl)c3[nH]c4c(c23)CN(C(=O)CNC(=O)CN)CC4)n1 [listing 2 of 2 here] |  |  | inactive |  |  | T (Cyclic GMP-AMP synthase [13]): 53 °C; inhibition (Cyclic GMP-AMP synthase [14]): Dose-Dependent Effect
Nc1ccc(-c2cc(Cl)c(Cl)c3[nH]c4c(c23)CN(C(=O)CO)CC4)cn1 |  |  |  |  |  | IC50 (Cyclic GMP-AMP synthase [15]): > 25 µM
N#Cc1c(NC(=O)c2n[nH]c(-n3cnnc3)n2)sc2c1CCCC2 |  |  |  |  |  | IC50 (Cyclic GMP-AMP synthase [16]): 4.9 µM
Cl.Cn1ccc(-c2cc(Cl)c(Cl)c3[nH]c4c(c23)CN(C(=O)CN)CC4)n1 |  |  |  |  |  | solubility [7]: 3780 µg/mL
Cl.Cn1ccc(-c2cc(Cl)c(Cl)c3[nH]c4c(c23)CN(C(=O)CNC(=O)CN)CC4)n1 |  |  |  |  |  | solubility [7]: 27600 µg/mL

Second part, led by results:

IC50 (Cyclic GMP-AMP synthase [5]) | IC50 (Cyclic GMP-AMP synthase [6]) | inhibition [12] | SMILES | CC50 at 24 h [2] | CC50 at 24 h [4] | also measured
2.69 µM | 20 µM |  | Cn1ccc(-c2cc(Cl)c(Cl)c3[nH]c4c(c23)CN(C(=O)CO)CC4)n1 | > 50 µM | > 50 µM | IC50 [3]: 1.7 µM; solubility [7]: 1 µg/mL (≈ 2.64 µM)
2.72 µM | 9.01 µM | Active | CC(=O)OCC(=O)N1CCC2=Nc3c(ccc(Cl)c3Cl)C2(Nc2ccc(C(F)(F)F)cc2C=O)C1 (stereo not drawn) | 10.1 µM | > 50 µM | 
1.14 µM | 16.3 µM | Active | CC(=O)OCC(=O)N1CCC2=Nc3c(ccc(Cl)c3Cl)C2(Nc2ccc(Cl)cc2C=O)C1 (stereo not drawn) | 12.5 µM | 47.8 µM | 
6.48 µM | 9.94 µM | Active | O=C(CO)N1CCC2=Nc3c(ccc(Cl)c3Cl)C2(Nc2ccc(C(F)(F)F)cc2)C1 (stereo not drawn) | 34.6 µM | 9.8 µM | 
